Test results: EP3301096A1, “BIS-INDOLE DERIVATIVES FOR USE IN THE TREATMENT OF BACTERIAL INFECTIONS” (Heinrich Heine Universität Düsseldorf, priority 2016, dated 2018)

Columns and labels:
[1] = system: S. aureus ATCC 25923; test: MIC by broth microdilution method (CLSI); conditions: Staphylococcus aureus, ATCC25923, 24 h
Experimental: (§4) The compounds were tested for their antibacterial activities against the pathogenic nosocomial strains of Staphylococcus aureus, Enterococcus faecalis Enterococcus faecium, Acinetobacter baumannii. The minimal inhibitory concentration (MIC) was determined by the broth microdilution method according to the recommendations of the Clinical and Laboratory Standards Institute (CLSI) (CLSI M7-A9, 2012). For preparation of the inoculum the growth method was used. Bacterial cells were grown aerobically in Muller Hinton (MH) medium at 37°C and 180 rpm. A preculture was grown until log phase (OD600 nm ∼ 0.5) and then seeded at 5 x 10^4 bacteria/well in a total volume of 100 µL in 96 well round bottom microtiter plates and incubated with serially diluted test substances at a concentration range of 100-0.78 µM. The compounds were screened in two-fold serial dilution. Microplates were incubated aerobically at 37°C for 24 h. MICs were determined by identifying the minimum concentration of the compounds that led to complete inhibition of visual growth of the bacteria.

[2] = system: E. faecium ATCC 35667; test: MIC by broth microdilution method (CLSI); conditions: Enterococcus faecium, ATCC35667, 24 h
Experimental: as §4

[3] = system: E. faecalis ATCC 51299; test: MIC by broth microdilution method (CLSI); conditions: Enterococcus faecalis, ATCC51299, 24 h
Experimental: as §4

[4] = system: M. tuberculosis H37Rv; test: MIC determination, resazurin microplate assay; assay type: cell-based; conditions: Mycobacterium tuberculosis, 120 h, five days, range 100-0.78 µM
[5] = system: E. faecalis ATCC 29212; test: MIC by broth microdilution method (CLSI); conditions: Enterococcus faecalis, ATCC29212, 24 h
Experimental: as §4

[6] = system: MRSA ATCC 700699; test: MIC by broth microdilution method (CLSI); conditions: Staphylococcus aureus, 24 h
Experimental: as §4

[7] = system: VR E. faecium ATCC 700221; test: MIC by broth microdilution method (CLSI); conditions: Enterococcus faecium, ATCC700221, 24 h
Experimental: as §4

[8] = system: nosocomial pathogens and Mycobacterium tuberculosis; test: MIC determination, statements across the tested strains; assay type: cell-based; conditions: for activity against the tested strains: tested concentration range 100-0.78 µM
[9] = system: methicillin-sensitive Staphylococcus aureus; test: MIC quantified via the BacTiter-Glo assay; assay type: cell-based; conditions: methicillin-sensitive strain; 24 h
Experimental: (§1) The MICs of compounds according to formulas (2), (3), (4), (7), (11), (12) and (18) were additionally quantified via the BacTiter-Glo™ assay (Promega, Madison, WI, USA). Briefly, after an incubation time of 24 h, each well was resuspended by pipetting, and 50 µL aliquots were transferred into an opaque-walled multiwell plate. Additionally, control wells containing medium without cells to determine background luminescence were prepared. 50 µL BacTiter-Glo™ reagent were added to each well. Contents were mixed and incubated for five minutes at room temperature. Luminescence was measured using a microplate reader. Growth was calculated relative to the background luminescence (0% growth) and a compound-free DMSO control (100% growth).

[10] = system: methicillin-resistant Staphylococcus aureus; test: MIC quantified via the BacTiter-Glo assay; assay type: cell-based; conditions: methicillin-resistant strain; 24 h
Experimental: as §1

[11] = system: human fetal lung fibroblast cell line MRC-5; test: Cytotoxicity, resazurin assay; assay type: cell-based; conditions: MRC-5 cells, 48 h
Experimental: (§2) The cytotoxicity of the compounds according to formulas (2), (3) and (4) and according to formulas (7), (11), (12) and (18) was determined in vitro using the human monocyte cell line THP-1 (Deutsche Sammlung von Mikroorganismen und Zellkulturen GmbH) and the human fetal lung fibroblast cell line MRC-5 (American Type Culture Collection).
(§3) THP-1 cells were cultured in RPMI 1640 medium containing 10% (v/v) fetal bovine serum (FBS), while MRC-5 cells were incubated in Dulbecco's Modified Eagles Medium (DMEM) containing 10% (v/v) FBS both at 37°C in a humidified atmosphere of 5% CO2. […] Cells treated with DMSO in a final concentration of 1% (v/v) served as DMSO toxicity controls. After an incubation time of 48 h, 10 µL resazurin solution (100 µg/mL) were added per well and incubated for further 3 h at 37°C in a humidified atmosphere of 5% CO2. Fluorescence was quantified using a microplate reader (excitation 540 nm, emission 590 nm). Growth was calculated relative to non-inoculated (i.e. cell-free) (0% growth) and untreated (100% growth) controls in triplicate experiments, respectively. For determination of the therapeutic index of the tested substances, the selectivity index (SI) was determined by the quotient of cytotoxic concentration and MIC. Compounds with SI ≥ 10 were characterized in further experiments.

[12] = system: human monocyte cell line THP-1; test: Cytotoxicity, resazurin assay; assay type: cell-based; conditions: THP-1 cells, 48 h
Experimental: as §2, §3

[13] = system: Staphylococcus aureus MRSA strain ATCC 700699; test: Time-kill curves in vitro (killing kinetics); assay type: cell-based
[14] = system: Methicillin resistant S. aureus (MRSA; ATCC 700699); test: Resistance development during time-kill kinetics; assay type: cell-based, Staphylococcus aureus; conditions: after 6 and 24 h of incubation, plated on agar with 5x MIC
Experimental: Additionally, the resistance rate of the cultures was determined after 6 and 24 h of incubation. For this, 20 µL of the cultures were plated on 1 mL MH agar containing the five-fold MIC of the compounds (for the compound according to formula (2) and (4): 2 µM, for the compound according to formula (3): 8 µM). After an incubation time of 24 h at 37°C, the colonies were counted. The resistance rate was determined as quotient of the number of resistant colonies on compound containing agar and the total amount of viable bacteria at the corresponding time points.
Two independent cultures C1 and C2 were tested for each attempt. Compounds were tested at 5x MIC resulting in 0.02-0.08% DMSO final concentration. In an independent experiment, medium was replaced and compounds were freshly added after 6 h, denoted "freshly added" in the Figure. 20 µL of different dilution of the cultures after either 6 or 24 h of incubation were plated out on MH agar containing either no antibiotics, which is denoted (*) or the compounds of formulas (2) and (3) at 5x MIC, respectively.

Row | Structure (SMILES) | MIC [1] [µM] | MIC [2] [µM] | MIC [3] [µM] | MIC [4] [µM] | MIC [5] [µM] | MIC [6] [µM] | MIC [7] [µM] | effect against M. tuberculosis, S. aureus and E.faecium [8] | activity against the tested strains [8] | inhibition of Staphylococcus aureus (BacTiter-Glo) [9] | inhibition of Staphylococcus aureus (BacTiter-Glo) [10] | cytotoxic (inhibitory) concentration [11] [µM] | cytotoxic (inhibitory) concentration [12] [µM] | bacteria amount ([13]; after 6 h at five-fold MIC, inoculum 10^6 CFU/mL) | killing effect ([13]; five-fold MIC) | level of resistance in treated cultures [14]
1 | c1ccc2c(-c3cc(-c4c[nH]c5ccccc45)ncn3)c[nH]c2c1 [formula (15), 4,6-di(1H-indole-3-yl)pyrimidine] | > 100 | > 100 | > 100 | > 100 | > 100 | > 100 | > 100 | – | – | – | – | – | – | – | – | –
2 | Brc1cc2[nH]cc(-c3cnc(-c4c[nH]c5cc(Br)c(Br)cc45)cn3)c2cc1Br [formula (7), 2,5-bis(5,6-dibromo-1H-indole-3-yl)pyrazine] | 100 | 50 | > 100 | > 100 | 100 | 25 | 50 | – | – | – | – | – | – | – | – | –
3 | c1ccc2c(-c3ccc(-c4c[nH]c5ccccc45)nn3)c[nH]c2c1 [formula (17), 3,6-Di(1H-indole-3-yl)pyridazine] | > 100 | > 100 | 100 | > 100 | 100 | > 100 | > 100 | – | – | – | – | – | – | – | – | –
4 | c1cnc2[nH]cc(-c3cnc(-c4c[nH]c5ncccc45)nc3)c2c1 [formula (13), 3,3'-(pyrimidine-2,5-diyl)bis(1H-pyrrolo[2,3-b]pyridine)] | > 100 | > 100 | > 100 | > 100 | 100 | > 100 | > 100 | – | – | – | – | – | – | – | – | –
5 | COc1ccc2[nH]cc(-c3cnc(-c4c[nH]c5ccc(OC)cc45)cn3)c2c1 [formula (8), 2,5-bis(5-methoxy-1H-indole-3-yl)pyrazine] | > 100 | > 100 | > 100 | > 100 | > 100 | > 100 | > 100 | did not show any effect | – | – | – | – | – | – | – | –
6 | c1ccc2c(-c3cnc(-c4c[nH]c5ccccc45)nc3)c[nH]c2c1 [formula (12), 3,3'-(pyrimidine-2,5-diyl)bis(1H-indole)] | 100 | 100 | 100 | 50 | 50 | 12.5 | 100 | – | – | – | – | – | – | – | – | –
7 | Fc1ccc2[nH]cc(-c3cnc(-c4c[nH]c5ccc(F)cc45)nc3)c2c1 [formula (11), 3,3'-(pyrimidine-2,5-diyl)bis(5-fluoro-1H-indole)] | 100 | 50 | 100 | > 100 | 100 | 12.5 | 50 | – | – | – | – | – | – | – | – | –
8 | c1ccc2c(-c3cnc(-c4c[nH]c5ccccc45)cn3)c[nH]c2c1 [formula (10), 2,5-bis(1H-indole-3-yl)pyrazine] | > 100 | > 100 | 25 | > 100 | 12.5 | > 100 | > 100 | did not show any effect | – | – | – | – | – | – | – | –
9 | Fc1ccc2[nH]cc(-c3cnc(-c4c[nH]c5ccc(F)cc45)cn3)c2c1 [formula (5), 2,5-bis(5-fluoro-1H-indole-3-yl)pyrazine] | > 100 | > 100 | > 100 | > 100 | > 100 | > 100 | > 100 | – | no activity | – | – | – | – | – | – | –
10 | c1ccc2c(-c3csc(-c4c[nH]c5ccccc45)n3)c[nH]c2c1 [formula (18), 2,4-di(1H-indole-3-yl)thiazole] | 6.25 | 6.25 | > 100 | 100 | > 100 | 3.12 | 6.25 | – | – | effectively inhibited | effectively inhibited | – | – | – | – | –
11 | COc1ccc2c(-c3cnc(-c4c[nH]c5cc(OC)ccc45)cn3)c[nH]c2c1 [formula (9), 2,5-bis(6-methoxy-1H-indole-3-yl)pyrazine] | > 100 | > 100 | > 100 | > 100 | > 100 | > 100 | > 100 | did not show any effect | – | – | – | – | – | – | – | –
12 | Brc1ccc2c(-c3cnc(-c4c[nH]c5cc(Br)ccc45)cn3)c[nH]c2c1 [formula (6), 2,5-bis(6-bromo-1H-indole-3-yl)pyrazine] | > 100 | > 100 | > 100 | > 100 | > 100 | > 100 | > 100 | – | no activity could be observed | – | – | – | – | – | – | –
13 | c1cc(-c2c[nH]c3ccccc23)nc(-c2c[nH]c3ccccc23)c1 [formula (16), 2,6-di(1H-indole-3-yl)pyridine] | > 100 | > 100 | 100 | > 100 | 100 | > 100 | > 100 | – | – | – | – | – | – | – | – | –
14 | COc1ccc2[nH]cc(-c3cnc(-c4c[nH]c5ccc(OC)cc45)nc3)c2c1 [formula (14), 3,3'-(pyrimidine-2,5-diyl)bis(5-methoxy-1H-indole)] | > 100 | 100 | 100 | 50 | 50 | 50 | 50 | – | – | – | – | – | – | – | – | –
15 | Brc1ccc2[nH]cc(-c3cnc(-c4c[nH]c5ccc(Br)cc45)cn3)c2c1 [formula (3), 2,5-bis(5-bromo-1H-indole-3-yl)pyrazine] | 1.56 | > 100 | > 100 | > 100 | > 100 | 1.56 | > 100 | – | – | effectively inhibited | effectively inhibited | 12.5 | 12.5 | 10^2 CFU/mL | strong bactericidal killing effect | no significant level of resistance was detectable
